The values below are quoted from earlier work in US20190070157A1, “HYPERBARIC SOLUTION INJECTION OF LEVOBUPIVACAINE HYDROCHLORIDE COMPRISING LEVOBUPIVACAINE HYDROCHLORIDE” (NEON LABORATORIES LIMITED, priority 2015, published 2019).

For the series the following is noted: animal studies, compared with bupivacaine.

As to `CCCCN1CCCC[C@H]1C(=O)Nc1c(C)cccc1C` [Levobupivacaine], the “risk of cardiovascular and CNS toxicity” value was “lower risk of cardiovascular and CNS toxicity than bupivacaine”.
